Assays:
[1] = molecular target: human Z A1AT (Homo sapiens, UniProt P01009, E366K); experiment: A1AT cell secretion assay using HEK-Z cells (ELISA); assay type: cell-based; set-up: expressed in transfected cells; host or cells: HEK-Z cells (HEK-EBNA with Z A1AT plasmid); conditions: HEK-Z cells, 10, 33, 100 and 333 nM, 48 h
Experimental: HEK-Z cells, a human embryonic kidney cell line stably transfected with the human Z A1AT gene, were plated into 96 well plates (3.0×10^5 cells/ml with 200 μl of media/well) overnight at 37° C. in a humidified atmosphere containing 5% CO2. Following incubation cells were washed with 200 μl serum-free media three times and media was replaced with treatments in quadruplicate using serum-free media containing vehicle, 10 μM suberanilohydroxamic acid (SAHA), (S)-1-((2-(trifluoromethyl)phenyl)sulfonyl)piperidine-3-carboxylic acid or (R)-1-((2-(trifluoromethyl)phenyl)sulfonyl)piperidine-3-carboxylic acid (at concentrations of 10, 33, 100 and 333 nM) for 48 h in a 37° C. incubator in a final volume of 200 μl. […]
(§1) Briefly, a 96 well plate was coated with human A1AT capture antibody overnight at room temperature (1:180 dilution from stock, 100 μl final volume/well). […] After which, 50 μl stop solution (2M H2SO4) was added and optical density (OD) of each well was read at 450 nm with 570 nm blank subtracted from each well using a microplate reader. A 4 parameter logistic curve was constructed using GraphPad Prism 7 and A1AT concentrations were determined in each sample by interpolation from a standard curve and multiplying by the appropriate dilution factor.
(§2) The amount of human A1AT secreted from transfected HEK-EBNA cells into the media was measured by ELISA. […]

[2] = molecular target: T1, human Siiyama A1AT (Homo sapiens, UniProt P01009, S77F); experiment: A1AT cell secretion assay using HEK-Siiyama cells (ELISA); assay type: cell-based; conditions: 1 or 10 μM, 48 h
T1 construct: expressed in transfected cells; host or cells: HEK-Siiyama cells (HEK-EBNA with Siiyama A1AT plasmid)
Experimental: HEK-Siiyama cells, a human embryonic kidney cell line stably transfected with the Siiyama A1AT gene, were plated into 96 well plates (3.0×10^5 cells/ml with 200 μl of media/well) overnight at 37° C. in a humidified atmosphere containing 5% CO2. Following incubation cells were washed with 200 μl serum-free media three times and media was replaced with serum-free media containing vehicle, 10 μM suberanilohydroxamic acid (SAHA), (S)-1-((2-(trifluoromethyl)phenyl)sulfonyl)piperidine-3-carboxylic acid (at 1 or 10 μM) or (R)-1-((2-(trifluoromethyl)phenyl)sulfonyl)piperidine-3-carboxylic acid (at 1 or 10 μM) in replicates of eight for 48 h in a 37° C. incubator in a final volume of 200 μl. At the end of the incubation step the supernatants were removed from the wells, centrifuged at 1000×g at 4° C. for 10 min and were assayed for human A1AT levels by ELISA (Human Serpin A1/α1-antitrypsin duo set ELISA, R& D Systems, DY1268) per manufacturer's instructions.
as §1, with “volume/well). The capture antibody was then removed and wells washed three times with 300 μl wash buffer (0.05% Tween 20 in PBS) and then 200 μl reagent diluent (25% Tween 20 in PBS) was incubated in each well for 1 h at room temperature. Diluted samples, standards (125, 250, 500, 1000, 2000, 4000 and 8000 pg/ml A1AT) or blanks were then added to each well in duplicate and the plates were covered with a plate sealer and left at room temperature for 2 h.” for “volume/well).”
as §2

[3] = molecular target: cardiac potassium (hERG) channels (Homo sapiens, UniProt Q12809); experiment: hERG channel inhibition, Patchliner automated patch clamp; assay type: cell-based; conditions: 6-point curve, maximum 100 μM
Experimental: (§3) (S)-1-((2-(trifluoromethyl)phenyl)sulfonyl)piperidine-3-carboxylic acid was tested for inhibition of cardiac potassium (hERG) channels using the Patchliner automated patch clamp. 6-Point concentration-response curves were generated using half-log serial dilutions from a maximum final test concentration of 100 μM. IC50 values were obtained from a 4-parameter logistic fit of the concentration-response data. […] Reference compound values were consistent with those presented in the literature (Elkins et al., 2013 J. Pharm. Tox. Meth. 68:11-122).

[4] = molecular target: hERG (Homo sapiens, UniProt Q12809); experiment: as above; assay type: cell-based; conditions: human; at 100 μM
Experimental: as §3

[5] = molecular target: T2, CYP 2C19 (Homo sapiens, UniProt P33261); experiment: CYP inhibition, E. coli CYPEX membranes with probe substrates; assay type: in vitro ADME
T2 construct: purchased CYPEX; host or cells: E. coli
Experimental: (§4) Using E. coli CYPEX membranes in combination with specific probe substrates, the inhibition of individual CYPs by (S)-1-((2-(trifluoromethyl)phenyl)sulfonyl)piperidine-3-carboxylic acid and (R)-1-((2-(trifluoromethyl)phenyl)sulfonyl)piperidine-3-carboxylic acid was assessed (see Weaver et al., 2003, Drug Metab Dispos 31:7, 955-966).

[6] = molecular target: T3, CYP 1A2 (Homo sapiens, UniProt P05177); experiment: as above; assay type: in vitro ADME
T3 construct: purchased CYPEX; host or cells: E. coli
T3 sequence (P05177 1-516): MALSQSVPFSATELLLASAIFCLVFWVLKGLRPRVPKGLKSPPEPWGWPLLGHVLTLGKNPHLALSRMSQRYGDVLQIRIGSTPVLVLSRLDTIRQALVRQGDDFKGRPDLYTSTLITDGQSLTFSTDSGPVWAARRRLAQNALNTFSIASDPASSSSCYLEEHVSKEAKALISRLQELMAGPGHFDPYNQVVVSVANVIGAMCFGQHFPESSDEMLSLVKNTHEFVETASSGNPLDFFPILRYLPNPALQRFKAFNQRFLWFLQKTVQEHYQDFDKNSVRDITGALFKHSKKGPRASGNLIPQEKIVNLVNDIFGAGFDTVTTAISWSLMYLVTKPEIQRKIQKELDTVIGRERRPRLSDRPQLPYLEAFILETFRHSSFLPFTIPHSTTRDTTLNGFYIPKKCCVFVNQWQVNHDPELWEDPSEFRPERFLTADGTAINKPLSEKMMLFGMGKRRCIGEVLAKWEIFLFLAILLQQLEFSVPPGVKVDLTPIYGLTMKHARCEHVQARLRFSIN
Experimental: as §4

[7] = molecular target: T4, CYP 2D6 (Homo sapiens, UniProt P10635); experiment: as above; assay type: in vitro ADME
T4 construct: purchased CYPEX; host or cells: E. coli
Experimental: as §4

[8] = molecular target: T5, CYP 3A4 (Homo sapiens, UniProt P08684); experiment: as above; assay type: in vitro ADME
T5 construct: purchased CYPEX; host or cells: E. coli
Experimental: as §4

T2 sequence (P33261 whole entry): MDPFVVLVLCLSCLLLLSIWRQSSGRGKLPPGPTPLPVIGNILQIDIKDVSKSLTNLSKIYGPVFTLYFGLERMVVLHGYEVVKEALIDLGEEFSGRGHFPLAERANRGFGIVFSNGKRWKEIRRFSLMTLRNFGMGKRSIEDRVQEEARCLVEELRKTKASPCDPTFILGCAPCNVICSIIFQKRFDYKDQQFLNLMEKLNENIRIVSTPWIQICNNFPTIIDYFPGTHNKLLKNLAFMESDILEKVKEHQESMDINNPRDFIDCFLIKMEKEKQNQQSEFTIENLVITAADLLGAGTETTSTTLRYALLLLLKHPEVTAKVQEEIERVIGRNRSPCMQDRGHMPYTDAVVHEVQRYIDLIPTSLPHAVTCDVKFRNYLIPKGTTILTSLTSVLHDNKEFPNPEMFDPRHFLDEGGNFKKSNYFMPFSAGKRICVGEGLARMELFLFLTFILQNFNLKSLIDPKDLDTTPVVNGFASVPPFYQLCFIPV
T4 sequence (P10635 whole entry): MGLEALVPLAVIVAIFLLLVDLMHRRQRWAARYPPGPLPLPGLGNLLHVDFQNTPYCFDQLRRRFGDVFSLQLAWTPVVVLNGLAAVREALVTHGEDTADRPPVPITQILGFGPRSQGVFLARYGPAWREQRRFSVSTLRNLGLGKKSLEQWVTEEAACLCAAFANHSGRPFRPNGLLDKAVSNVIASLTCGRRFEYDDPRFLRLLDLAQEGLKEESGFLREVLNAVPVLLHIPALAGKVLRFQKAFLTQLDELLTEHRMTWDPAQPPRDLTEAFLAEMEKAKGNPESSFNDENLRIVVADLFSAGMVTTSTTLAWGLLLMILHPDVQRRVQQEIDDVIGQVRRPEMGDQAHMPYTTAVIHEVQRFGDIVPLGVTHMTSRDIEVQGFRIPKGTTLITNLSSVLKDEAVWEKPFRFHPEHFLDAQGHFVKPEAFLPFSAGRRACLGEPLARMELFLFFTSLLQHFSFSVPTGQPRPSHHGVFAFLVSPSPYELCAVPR
human Z A1AT, sequence (P01009 25-418 E366K): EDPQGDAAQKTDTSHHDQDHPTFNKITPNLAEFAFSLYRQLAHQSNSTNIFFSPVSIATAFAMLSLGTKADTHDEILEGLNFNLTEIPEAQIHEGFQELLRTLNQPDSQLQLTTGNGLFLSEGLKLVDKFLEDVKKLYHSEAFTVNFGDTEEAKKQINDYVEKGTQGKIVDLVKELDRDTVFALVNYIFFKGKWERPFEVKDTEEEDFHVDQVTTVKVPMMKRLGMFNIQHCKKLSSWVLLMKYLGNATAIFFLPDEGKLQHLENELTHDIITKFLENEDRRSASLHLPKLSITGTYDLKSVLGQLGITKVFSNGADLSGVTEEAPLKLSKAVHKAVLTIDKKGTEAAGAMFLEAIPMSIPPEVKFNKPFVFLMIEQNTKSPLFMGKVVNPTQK
T5 sequence (P08684 whole entry): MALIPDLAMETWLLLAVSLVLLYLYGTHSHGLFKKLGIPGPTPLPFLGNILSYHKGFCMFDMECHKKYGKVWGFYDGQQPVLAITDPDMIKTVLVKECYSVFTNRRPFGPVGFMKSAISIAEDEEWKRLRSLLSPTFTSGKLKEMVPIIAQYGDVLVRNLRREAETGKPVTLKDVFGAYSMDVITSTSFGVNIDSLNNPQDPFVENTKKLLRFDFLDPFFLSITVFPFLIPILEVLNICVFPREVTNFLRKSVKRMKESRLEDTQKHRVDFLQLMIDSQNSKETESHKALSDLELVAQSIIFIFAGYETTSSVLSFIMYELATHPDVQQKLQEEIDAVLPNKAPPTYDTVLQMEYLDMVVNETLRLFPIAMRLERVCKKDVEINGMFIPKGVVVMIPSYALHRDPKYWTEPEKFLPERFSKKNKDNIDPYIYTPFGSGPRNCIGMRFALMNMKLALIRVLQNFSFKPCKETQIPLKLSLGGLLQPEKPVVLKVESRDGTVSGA
T1 sequence (P01009 25-418 S77F): as the sequence (P01009 25-418 E366K) above, with S53F, K342E counted along it
hERG, sequence (Q12809 whole entry): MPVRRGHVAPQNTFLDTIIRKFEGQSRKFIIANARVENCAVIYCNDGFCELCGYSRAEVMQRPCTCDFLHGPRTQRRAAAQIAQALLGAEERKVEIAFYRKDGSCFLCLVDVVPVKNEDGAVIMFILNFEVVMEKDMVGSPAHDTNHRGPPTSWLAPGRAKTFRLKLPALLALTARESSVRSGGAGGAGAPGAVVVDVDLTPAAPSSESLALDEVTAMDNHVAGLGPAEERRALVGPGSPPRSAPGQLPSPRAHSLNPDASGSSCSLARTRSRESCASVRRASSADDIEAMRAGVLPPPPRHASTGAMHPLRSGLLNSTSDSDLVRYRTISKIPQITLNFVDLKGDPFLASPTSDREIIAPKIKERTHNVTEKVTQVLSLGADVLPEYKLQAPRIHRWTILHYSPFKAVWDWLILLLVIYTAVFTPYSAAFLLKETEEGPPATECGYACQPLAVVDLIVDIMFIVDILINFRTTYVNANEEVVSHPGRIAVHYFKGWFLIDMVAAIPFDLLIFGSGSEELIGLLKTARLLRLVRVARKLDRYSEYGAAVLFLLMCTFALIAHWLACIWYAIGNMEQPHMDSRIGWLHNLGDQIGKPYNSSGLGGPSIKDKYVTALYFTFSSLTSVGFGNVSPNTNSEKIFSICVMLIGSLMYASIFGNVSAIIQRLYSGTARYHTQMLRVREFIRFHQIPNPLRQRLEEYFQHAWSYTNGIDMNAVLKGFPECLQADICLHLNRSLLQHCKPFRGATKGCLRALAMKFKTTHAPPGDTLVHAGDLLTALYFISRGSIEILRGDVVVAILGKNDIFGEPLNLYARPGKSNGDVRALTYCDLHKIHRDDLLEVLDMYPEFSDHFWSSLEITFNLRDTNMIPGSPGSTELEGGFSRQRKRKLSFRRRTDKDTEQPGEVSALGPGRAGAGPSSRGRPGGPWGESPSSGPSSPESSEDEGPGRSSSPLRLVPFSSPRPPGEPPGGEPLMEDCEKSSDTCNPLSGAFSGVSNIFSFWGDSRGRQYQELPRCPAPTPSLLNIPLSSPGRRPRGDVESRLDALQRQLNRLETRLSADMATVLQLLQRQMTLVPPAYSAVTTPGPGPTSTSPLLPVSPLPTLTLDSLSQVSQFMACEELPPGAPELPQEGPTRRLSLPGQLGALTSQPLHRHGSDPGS
cardiac potassium (hERG) channels, sequence (Q12809 whole entry): as above

Question: With `O=C(O)[C@H]1CCCN(S(=O)(=O)c2ccccc2C(F)(F)F)C1` [(S)-1-((2-(Trifluoromethyl)phenyl)sulfonyl)piperidine-3-carboxylic acid] as the molecule, how does the “secretion of human Z A1AT into cell supernatant” value [1] read?
Answer: stimulates secretion of human Z A1AT in a dose dependent manner

Question: What about the “secretion of human Siiyama A1AT into cell supernatant” value [2] of the same molecule?
Answer: does not stimulate secretion of human Siiyama A1AT

Question: What about the IC50 [3] of the same molecule?
Answer: > 100 µM

Question: What about the inhibition at 100 µM [4] of the same molecule?
Answer: 7%

Question: What about the IC50 [5] of the same molecule?
Answer: > 50 µM

Question: What about the IC50 [6] of the same molecule?
Answer: > 50 µM

Question: And the IC50 [7]?
Answer: > 50 µM

Question: What about the IC50 [8] of the same molecule?
Answer: > 50 µM

Question: Which “secretion of human Z A1AT into cell supernatant” value [1] does the source give for `O=C(O)[C@@H]1CCCN(S(=O)(=O)c2ccccc2C(F)(F)F)C1` [(R)-1-((2-(Trifluoromethyl)phenyl)sulfonyl)piperidine-3-carboxylic acid] here?
Answer: stimulates secretion of human Z A1AT in a dose dependent manner

Question: And the “secretion of human Siiyama A1AT into cell supernatant” value [2]?
Answer: does not stimulate secretion of human Siiyama A1AT

Question: What about the IC50 [5] of the same molecule?
Answer: > 50 µM

Question: What about the IC50 [6] of the same molecule?
Answer: > 50 µM

Question: What about the IC50 [7] of the same molecule?
Answer: > 50 µM

Question: And the IC50 [8]?
Answer: > 50 µM

From US12673050B2, “Compositions and their use for the treatment of A1-antitrypsin deficiency” (Centessa Pharmaceuticals (UK) Limited, priority 2021, dated 2026)
